Data taken from US20210179632A1, “THIENOPIPERIDINE DERIVATIVE AND USE THEREOF” (JIANGSU TASLY DIYI PHARMACEUTICAL CO. LTD., priority 2013, published 2021).

tested on: platelet aggregation induced by ADP; test: Platelet aggregation induced by ADP in platelet-rich plasma of rats drawn 2 hours after dosing (NJ4 Semi-Platelet Aggregation Analyzer); assay type: in vivo; settings: male Wistar rats, 3 mg/kg as suspension in 0.25 wt % CMC, blood drawn 2 hours after administration, negative control 61.22 ± 4.73, * P < 0.001
From the text: The maximum aggregation rate of irreversible condensed phase can be used to evaluate the effect of subject products on coagulation function. The experiment used NJ4 type Semi-Platelet Aggregation Analyzer of precil company, to survey the inhibitory effect of the subject products provided by Tasly Holding Group. Co. Ltd on platelet aggregation. • Materials • Animals: male Wistar rats, body weight 230-250 g, bought from Beijing Vital River Laboratory • Animal Technology Co. Ltd., animal certification number:SCXK ( ? ) 2007-0001. • Reagents: ADP, bought from Sigma company; clopidogrel was prepared referring to the method in Chinese Journal of Medicinal Chemistry 2007, 17 (3) 163-165; prasugrel was prepared referring to the method in Chinese Journal of Pharmaceuticals 2012, 43 (8) 647-649; vicagrel was prepared referring to the method in Journal of Medicinal Chemistry, 2012, 55(7), 3342-3352. • Subject products: 7 subject products were all provided by Tasly Holding Group. Co. Ltd. • Administration dosage: subject products were suspensed in CMC in a concentration of 0.25 wt %, were administered in a dosage of 3 mg/kg body weight, the administration volume was 2 ml.
2 hours after administering drugs to the rats, anesthesia with mebubarbital, draw blood from abdominal aorta, anticoagulation with sodium citrate 1:9. Obtained platelet-rich plasma and platelet-poor plasma by centrifugation, the volume ratio of the two was platelet-poor plasma:platelet-rich plasma=3:1.

SMILES | The maximum aggregation rate of platelet irreversible condensed phase
COC(=O)[C@H](c1ccccc1Cl)N1CCc2sccc2C1 [Clopidogrel, reference compound] | 46.77 ± 8.28*
CC(=O)Oc1cc2c(s1)CCN(C(C(=O)C1CC1)c1ccccc1F)C2 (stereo not drawn) [Prasugrel, prasugrel, reference compound] | 20.72 ± 18.84*
COC(=O)[C@H](c1ccccc1Cl)N1CCc2sc(OP(=O)(OC)OC)cc2C1 [TSC-1] | 45.8 ± 3.55*
CCOP(=O)(OCC)Oc1cc2c(s1)CCN([C@H](C(=O)OC)c1ccccc1Cl)C2 [TSC-2] | 41.7 ± 7.43*
COC(=O)[C@H](c1ccccc1Cl)N1CCc2sc(OP(=O)(OC(C)C)OC(C)C)cc2C1 [TSC-3] | 38.7 ± 4.27*
COC(=O)[C@H](c1ccccc1Cl)N1CCc2sc(OP(=O)(Oc3ccccc3)Oc3ccccc3)cc2C1 [TSC-4] | 46.5 ± 8.16*
COC(=O)[C@H](c1ccccc1Cl)N1CCc2sc(OP(=O)(OCC(Cl)(Cl)Cl)OCC(Cl)(Cl)Cl)cc2C1 [TSC-5] | 39.1 ± 5.66*
COC(=O)[C@H](c1ccccc1Cl)N1CCc2sc(OP(=O)(O)O)cc2C1 [TSC-6] | 29.6 ± 5.33*
COC(=O)[C@H](c1ccccc1Cl)N1CCc2sc(OCOP(=O)(OC(C)(C)C)OC(C)(C)C)cc2C1 [TSC-7] | 39.2 ± 6.16*
COC(=O)[C@H](c1ccccc1Cl)N1CCc2sc(OCOP(=O)(O)O)cc2C1 [TSC-8] | 32.7 ± 9.21*
COC(=O)[C@H](c1ccccc1Cl)N1CCc2sc(OS(=O)(=O)O)cc2C1 [TSC-9] | 25.7 ± 3.25*
COC(=O)[C@H](c1ccccc1Cl)N1CCc2sc(OC(C)=O)cc2C1 [Vicagrel, vicagrel, reference compound] | 32.36 ± 5.14*
